For 23 compounds, EC (150% of control) and melting point results are on record in patent US9284321B2, “Piperazino[1,2-a]indol-1-ones and [1,4]diazepino[1,2-a]indol-1-one” (Hoffmann-La Roche Inc., priority 2012, dated 2016).

For series [1], the system named is human embryonic stem cell derived neural stem cells (NSCs). The series can be described thus: Neural Stem Cell Proliferation Assay (neurogenesis assay, ATP levels by CellTiterGlo). It is filed as cell-based. To be noted: 96 h, compound concentration at which 150% activity of control (100%) is reached, NSC proliferation by ATP level after 4 days incubation, dose response 8 μM to 8 nM. An outline of the steps: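 Human ESC-derived NSCs (dual SMAD inhibition) seeded 4 h before compounds, 11-point 2-fold series 8 μM–8 nM; 4 days at 37 °C, 5% CO2. ATP by CellTiterGlo luminescence as cell-number proxy, response as % of media control (0.25% DMSO); EC150 = concentration giving 150% of control.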

Molecules are shown by their SMILES.

Regarding `N#Cc1cc(-c2ccc(Cl)c(C(F)(F)F)c2)c2c(c1)cc1n2CCNC1=O` [Example 204, 6-[4-Chloro-3-(trifluoromethyl)phenyl]-1-oxo-3,4-dihydro-2H-pyrazino[1,2-a]indole-8-carbonitrile], the melting point came to 347 °C. The compound further registered an EC (150% of control) in series [1] of 1.28 µM.

On to `Cc1c2n(c3c(-c4ccc(F)cc4F)cc(C#N)cc13)CCCNC2=O` [Example 205, 7-(2,4-Difluorophenyl)-11-methyl-1-oxo-2,3,4,5-tetrahydro-[1,4]diazepino[1,2-a]indole-9-carbonitrile], for which the melting point worked out at 225 °C. The EC (150% of control) in series [1] stood at 0.031 µM.

Compound `Cc1c2n(c3c(-c4ccc(Cl)cc4Cl)cc(C#N)cc13)CCCNC2=O` [Example 206, 7-(2,4-Dichlorophenyl)-11-methyl-1-oxo-2,3,4,5-tetrahydro-[1,4]diazepino[1,2-a]indole-9-carbonitrile] had a melting point of 257 °C. This compound also came in with an EC (150% of control) in series [1] of 0.031 µM.

As to `Cc1c2n(c3c(-c4ccc(Cl)cc4F)cc(C#N)cc13)CCCNC2=O` [Example 207, 7-(4-Chloro-2-fluorophenyl)-11-methyl-1-oxo-2,3,4,5-tetrahydro-[1,4]diazepino[1,2-a]indole-9-carbonitrile], the melting point was 259 °C. In series [1], this compound registered an EC (150% of control) of 0.019 µM.

`Cc1c2n(c3c(-c4ccnc(F)c4)cc(C#N)cc13)CCCNC2=O` [Example 208, 7-(2-Fluoropyridin-4-yl)-11-methyl-1-oxo-2,3,4,5-tetrahydro-[1,4]diazepino[1,2-a]indole-9-carbonitrile] returned a melting point of 264 °C. The compound further registered an EC (150% of control) in series [1] of 0.049 µM.

As to `Cc1c2n(c3c(-c4ccc(F)nc4)cc(C#N)cc13)CCCNC2=O` [Example 209, 7-(6-Fluoropyridin-3-yl)-11-methyl-1-oxo-2,3,4,5-tetrahydro-[1,4]diazepino[1,2-a]indole-9-carbonitrile], the melting point is 280 °C. For the same compound, the EC (150% of control) in series [1] was found to be 0.16 µM.

`COc1cc(-c2ccc(F)cc2)c2c(c1)cc1n2CCNC1=O` [Example 210, 6-(4-Fluorophenyl)-8-methoxy-3,4-dihydro-2H-pyrazino[1,2-a]indol-1-one] showed a melting point of 220 °C. Besides, the EC (150% of control) in series [1] stood at 2.29 µM.

The compound `COc1cc(-c2ccc(Cl)cc2)c2c(c1)cc1n2CCNC1=O` [Example 211, 6-(4-Chlorophenyl)-8-methoxy-3,4-dihydro-2H-pyrazino[1,2-a]indol-1-one] showed a melting point of 246 °C. Further, in series [1], the EC (150% of control) is 1.54 µM.

Compound `COc1cc(-c2ccc(F)c(F)c2)c2c(c1)cc1n2CCNC1=O` [Example 212, 6-(3,4-Difluorophenyl)-8-methoxy-3,4-dihydro-2H-pyrazino[1,2-a]indol-1-one] registered a melting point of 216 °C. In series [1], this compound displayed an EC (150% of control) of 1.24 µM.

The compound `COc1cc(-c2ccc(C(F)(F)F)cc2)c2c(c1)cc1n2CCNC1=O` [Example 213, 8-Methoxy-6-[4-(trifluoromethyl)-phenyl]-3,4-dihydro-2H-pyrazino[1,2-a]indol-1-one] showed a melting point of 276 °C. Further, the EC (150% of control) in series [1] was 0.8 µM.

Compound `N#Cc1cc(-c2ccc(Cl)cc2)c2c(c1)cc1n2CCCNC1=O` [Example 214, 7-(4-Chlorophenyl)-1-oxo-2,3,4,5-tetrahydro-[1,4]diazepino[1,2-a]indole-9-carbonitrile] showed a melting point of 245.5 °C. The EC (150% of control) in series [1] is 0.14 µM.

With `N#Cc1cc(-c2ccc(F)cc2)c2c(c1)cc1n2CCCNC1=O` [Example 215, 7-(4-Fluorophenyl)-1-oxo-2,3,4,5-tetrahydro-[1,4]diazepino[1,2-a]indole-9-carbonitrile], the melting point was 230 °C. In addition, the EC (150% of control) in series [1] turned out to be 0.09 µM.

`O=C1NCCn2c1cc1cc(OC(F)(F)F)cc(-c3ccc(C(F)(F)F)cc3)c12` [Example 216, 8-(Trifluoromethoxy)-6-[4-(trifluoromethyl)-phenyl]-3,4-dihydro-2H-pyrazino[1,2-a]indol-1-one] gave a melting point of 243 °C. Further, the EC (150% of control) in series [1] was 0.022 µM.

Take `N#Cc1cc(-c2ccc(F)c(F)c2)c2c(c1)cc1n2CCCNC1=O` [Example 217, 7-(3,4-Difluorophenyl)-1-oxo-2,3,4,5-tetrahydro-[1,4]diazepino[1,2-a]indole-9-carbonitrile]: the melting point worked out at 224.5 °C. In addition, in series [1], the EC (150% of control) was 0.51 µM.

In turn, `N#Cc1cc(-c2ccc(C(F)(F)F)cc2)c2c(c1)cc1n2CCCNC1=O` [Example 218, 1-Oxo-7-[4-(trifluoromethyl)-phenyl]-2,3,4,5-tetrahydro-[1,4]diazepino[1,2-a]indole-9-carbonitrile] showed a melting point of 241.5 °C. The EC (150% of control) in series [1] was found to be 0.45 µM.

For the compound `N#Cc1cc(-c2ccc(Cl)cc2F)c2c(c1)cc1n2CCCNC1=O` [Example 219, 7-(4-Chloro-2-fluorophenyl)-1-oxo-2,3,4,5-tetrahydro-[1,4]diazepino[1,2-a]indole-9-carbonitrile], the melting point was found to be 217.5 °C. In series [1], this compound showed an EC (150% of control) of 0.08 µM.

For `N#Cc1cc(-c2ccnc(F)c2)c2c(c1)cc1n2CCCNC1=O` [Example 220, 7-(2-Fluoropyridin-4-yl)-1-oxo-2,3,4,5-tetrahydro-[1,4]diazepino[1,2-a]indole-9-carbonitrile], the melting point was found to be 275 °C. Besides, the EC (150% of control) in series [1] came out at 0.5 µM.

As for `N#Cc1cc(-c2ccc(F)cc2F)c2c(c1)cc1n2CCCNC1=O` [Example 221, 7-(2,4-Difluorophenyl)-1-oxo-2,3,4,5-tetrahydro-[1,4]diazepino[1,2-a]indole-9-carbonitrile], the melting point is 216.5 °C. In series [1], the EC (150% of control) was 0.073 µM.

Turning to `N#Cc1cc(-c2cc(F)cc(F)c2)c2c(c1)cc1n2CCNC1=O` [Example 222, 6-(3,5-Difluorophenyl)-1-oxo-3,4-dihydro-2H-pyrazino[1,2-a]indole-8-carbonitrile], the melting point stood at 264 °C. For the same compound, in series [1], the EC (150% of control) stood at 0.22 µM.

For `N#Cc1cc(-c2cccc(F)c2)c2c(c1)cc1n2CCNC1=O` [Example 223, 6-(3-Fluorophenyl)-1-oxo-3,4-dihydro-2H-pyrazino[1,2-a]indole-8-carbonitrile], the melting point was found to be 248.5 °C. This compound also registered an EC (150% of control) in series [1] of 0.076 µM.

Turning to `N#Cc1cc(-c2ccc(N)nc2)c2c(c1)cc1n2CCNC1=O` [Example 224, 6-(6-Aminopyridin-3-yl)-1-oxo-3,4-dihydro-2H-pyrazino[1,2-a]indole-8-carbonitrile], the melting point came to 305 °C. In series [1], this compound displayed an EC (150% of control) of 0.76 µM.

As for `N#Cc1cc(-c2cncnc2)c2c(c1)cc1n2CCNC1=O` [Example 225, 1-Oxo-6-pyrimidin-5-yl-3,4-dihydro-2H-pyrazino[1,2-a]indole-8-carbonitrile], the melting point was found to be 323.5 °C. In addition, the EC (150% of control) in series [1] came to 1.75 µM.

`N#Cc1cc(-c2ccc(Cl)nc2)c2c(c1)cc1n2CCNC1=O` [Example 226, 6-(6-Chloropyridin-3-yl)-1-oxo-3,4-dihydro-2H-pyrazino[1,2-a]indole-8-carbonitrile] registered a melting point of 300.5 °C. In series [1], this compound registered an EC (150% of control) of 2.2 µM.
